Experiments:
Experiment in all cases: relative viability (nuclei count vs DMSO), 5 days (fraction); higher = more cells survive
ABC-1 = system: ABC-1
Procedure, shortened: (§1)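 Cells from lung cancer lines were seeded into 1536-well plates and, one day later, dosed by pin tool. Treatments were either a single drug or a fixed dose of an anchor drug with five library-drug doses (not always all listed) in √10 steps. After 5 days, nuclei were stained in a one-step fixation (final 0.05% Triton X-100, 1% formaldehyde, 1 ug/ml Hoechst) and counted on 4× images, and relative viability is the treated-to-vehicle nuclei ratio, as the median of duplicate plates.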

CAL-12T = system: CAL-12T
Procedure, shortened: as §1

COR-L 105 = system: COR-L 105
Procedure, shortened: as §1

ChaGo-K-1 = system: ChaGo-K-1
Procedure, shortened: as §1

EMC-BAC-2 = system: EMC-BAC-2
Procedure, shortened: as §1

EPLC-272H = system: EPLC-272H
Procedure, shortened: as §1

HCC-15 = system: HCC-15
Procedure, shortened: as §1

HCC-78 = system: HCC-78
Procedure, shortened: as §1

HOP-62 = system: HOP-62
Procedure, shortened: as §1

LXF-289 = system: LXF-289
Procedure, shortened: as §1

NCI-H1666 = system: NCI-H1666
Procedure, shortened: as §1

NCI-H1755 = system: NCI-H1755
Procedure, shortened: as §1

NCI-H1915 = system: NCI-H1915
Procedure, shortened: as §1

NCI-H1975 = system: NCI-H1975
Procedure, shortened: as §1

NCI-H2023 = system: NCI-H2023
Procedure, shortened: as §1

NCI-H2085 = system: NCI-H2085
Procedure, shortened: as §1

NCI-H2126 = system: NCI-H2126
Procedure, shortened: as §1

NCI-H3122 = system: NCI-H3122
Procedure, shortened: as §1

NCI-H322M = system: NCI-H322M
Procedure, shortened: as §1

NCI-H358 = system: NCI-H358
Procedure, shortened: as §1

NCI-H441 = system: NCI-H441
Procedure, shortened: as §1

UMC-11 = system: UMC-11
Procedure, shortened: as §1

Question: For `CC(=O)O[C@@]12CO[C@@H]1C[C@H](O)[C@@]1(C)C(=O)[C@H](O)C3=C(C)[C@@H](OC(=O)[C@H](O)[C@@H](NC(=O)OC(C)(C)C)c4ccccc4)C[C@@](O)([C@@H](OC(=O)c4ccccc4)[C@H]21)C3(C)C` [Docetaxel] + CC(=O)c1c(C)c2cnc(Nc3ccc(N4CCNCC4)cn3)nc2n(C2CCCC2)c1=O [Palbociclib] (partner 0.5 µM), which relative viability (ABC-1; first compound 0.0002 µM) is on record?
Answer: 0.568

Question: What about the relative viability (ABC-1; first compound 0.000632 µM) of the same molecule?
Answer: 0.587

Question: What about the relative viability (ABC-1; first compound 0.002 µM) of the same molecule?
Answer: 0.539

Question: What about the relative viability (ABC-1; first compound 0.006325 µM) of the same molecule?
Answer: 0.444

Question: And the relative viability (ABC-1; first compound 0.02 µM)?
Answer: 0.437

Question: And the relative viability (CAL-12T; first compound 0.0002 µM)?
Answer: 0.251

Question: And the relative viability (CAL-12T; first compound 0.000632 µM)?
Answer: 0.282

Question: And the relative viability (CAL-12T; first compound 0.002 µM)?
Answer: 0.192

Question: And the relative viability (CAL-12T; first compound 0.006325 µM)?
Answer: 0.198

Question: What about the relative viability (CAL-12T; first compound 0.02 µM) of the same molecule?
Answer: 0.105

Question: What about the relative viability (COR-L 105; first compound 0.0002 µM) of the same molecule?
Answer: 0.393

Question: And the relative viability (COR-L 105; first compound 0.000632 µM)?
Answer: 0.403

Question: And the relative viability (COR-L 105; first compound 0.002 µM)?
Answer: 0.368

Question: And the relative viability (COR-L 105; first compound 0.006325 µM)?
Answer: 0.353

Question: And the relative viability (COR-L 105; first compound 0.02 µM)?
Answer: 0.338

Question: And the relative viability (ChaGo-K-1; first compound 0.0002 µM)?
Answer: 0.883

Question: What about the relative viability (ChaGo-K-1; first compound 0.000632 µM) of the same molecule?
Answer: 0.677

Question: What about the relative viability (ChaGo-K-1; first compound 0.002 µM) of the same molecule?
Answer: 0.418

Question: And the relative viability (ChaGo-K-1; first compound 0.006325 µM)?
Answer: 0.313

Question: And the relative viability (EMC-BAC-2; first compound 0.0002 µM)?
Answer: 0.511

Question: And the relative viability (EMC-BAC-2; first compound 0.000632 µM)?
Answer: 0.536

Question: And the relative viability (EMC-BAC-2; first compound 0.002 µM)?
Answer: 0.441

Question: And the relative viability (EMC-BAC-2; first compound 0.006325 µM)?
Answer: 0.363

Question: What about the relative viability (EMC-BAC-2; first compound 0.02 µM) of the same molecule?
Answer: 0.31

Question: And the relative viability (EPLC-272H; first compound 0.0002 µM)?
Answer: 0.374

Question: And the relative viability (EPLC-272H; first compound 0.000632 µM)?
Answer: 0.341

Question: What about the relative viability (EPLC-272H; first compound 0.002 µM) of the same molecule?
Answer: 0.236

Question: And the relative viability (EPLC-272H; first compound 0.006325 µM)?
Answer: 0.204

Question: And the relative viability (EPLC-272H; first compound 0.02 µM)?
Answer: 0.148

Question: And the relative viability (HCC-15; first compound 0.0002 µM)?
Answer: 0.643

Question: And the relative viability (HCC-15; first compound 0.000632 µM)?
Answer: 0.383

Question: And the relative viability (HCC-15; first compound 0.002 µM)?
Answer: 0.228

Question: And the relative viability (HCC-15; first compound 0.006325 µM)?
Answer: 0.247

Question: What about the relative viability (HCC-78; first compound 0.0002 µM) of the same molecule?
Answer: 0.388

Question: And the relative viability (HCC-78; first compound 0.000632 µM)?
Answer: 0.481

Question: And the relative viability (HCC-78; first compound 0.002 µM)?
Answer: 0.435

Question: What about the relative viability (HCC-78; first compound 0.006325 µM) of the same molecule?
Answer: 0.457

Question: What about the relative viability (HCC-78; first compound 0.02 µM) of the same molecule?
Answer: 0.4

Question: What about the relative viability (HOP-62; first compound 0.0002 µM) of the same molecule?
Answer: 0.461

Question: What about the relative viability (HOP-62; first compound 0.000632 µM) of the same molecule?
Answer: 0.353

Question: What about the relative viability (HOP-62; first compound 0.002 µM) of the same molecule?
Answer: 0.284

Question: And the relative viability (HOP-62; first compound 0.02 µM)?
Answer: 0.156

Question: What about the relative viability (LXF-289; first compound 0.0002 µM) of the same molecule?
Answer: 0.578

Question: What about the relative viability (LXF-289; first compound 0.000632 µM) of the same molecule?
Answer: 0.569

Question: And the relative viability (LXF-289; first compound 0.002 µM)?
Answer: 0.337

Question: And the relative viability (LXF-289; first compound 0.006325 µM)?
Answer: 0.222

Question: What about the relative viability (LXF-289; first compound 0.02 µM) of the same molecule?
Answer: 0.131

Question: And the relative viability (NCI-H1666; first compound 0.0002 µM)?
Answer: 0.628

Question: And the relative viability (NCI-H1666; first compound 0.000632 µM)?
Answer: 0.666

Question: And the relative viability (NCI-H1666; first compound 0.002 µM)?
Answer: 0.795

Question: What about the relative viability (NCI-H1666; first compound 0.006325 µM) of the same molecule?
Answer: 0.712

Question: What about the relative viability (NCI-H1666; first compound 0.02 µM) of the same molecule?
Answer: 0.581

Question: And the relative viability (NCI-H1755; first compound 0.0002 µM)?
Answer: 0.466

Question: What about the relative viability (NCI-H1755; first compound 0.000632 µM) of the same molecule?
Answer: 0.489

Question: And the relative viability (NCI-H1755; first compound 0.002 µM)?
Answer: 0.5

Question: What about the relative viability (NCI-H1755; first compound 0.006325 µM) of the same molecule?
Answer: 0.41

Question: And the relative viability (NCI-H1755; first compound 0.02 µM)?
Answer: 0.406

Question: And the relative viability (NCI-H1915; first compound 0.0002 µM)?
Answer: 0.506

Question: And the relative viability (NCI-H1915; first compound 0.000632 µM)?
Answer: 0.464

Question: And the relative viability (NCI-H1915; first compound 0.002 µM)?
Answer: 0.219

Question: What about the relative viability (NCI-H1915; first compound 0.006325 µM) of the same molecule?
Answer: 0.149

Question: And the relative viability (NCI-H1915; first compound 0.02 µM)?
Answer: 0.102

Question: What about the relative viability (NCI-H1975; first compound 0.0002 µM) of the same molecule?
Answer: 0.568

Question: What about the relative viability (NCI-H1975; first compound 0.000632 µM) of the same molecule?
Answer: 0.354

Question: What about the relative viability (NCI-H1975; first compound 0.002 µM) of the same molecule?
Answer: 0.224

Question: And the relative viability (NCI-H1975; first compound 0.006325 µM)?
Answer: 0.215

Question: And the relative viability (NCI-H1975; first compound 0.02 µM)?
Answer: 0.107

Question: What about the relative viability (NCI-H2023; first compound 0.0002 µM) of the same molecule?
Answer: 0.357

Question: What about the relative viability (NCI-H2023; first compound 0.000632 µM) of the same molecule?
Answer: 0.339

Question: And the relative viability (NCI-H2023; first compound 0.002 µM)?
Answer: 0.101

Question: What about the relative viability (NCI-H2023; first compound 0.006325 µM) of the same molecule?
Answer: 0.0906

Question: And the relative viability (NCI-H2023; first compound 0.02 µM)?
Answer: 0.0705

Question: What about the relative viability (NCI-H2085; first compound 0.0002 µM) of the same molecule?
Answer: 0.463

Question: And the relative viability (NCI-H2085; first compound 0.000632 µM)?
Answer: 0.551

Question: What about the relative viability (NCI-H2085; first compound 0.002 µM) of the same molecule?
Answer: 0.539

Question: What about the relative viability (NCI-H2085; first compound 0.006325 µM) of the same molecule?
Answer: 0.48

Question: And the relative viability (NCI-H2085; first compound 0.02 µM)?
Answer: 0.42

Question: And the relative viability (NCI-H2126; first compound 0.0002 µM)?
Answer: 0.378

Question: And the relative viability (NCI-H2126; first compound 0.000632 µM)?
Answer: 0.356

Question: And the relative viability (NCI-H2126; first compound 0.002 µM)?
Answer: 0.332

Question: What about the relative viability (NCI-H2126; first compound 0.006325 µM) of the same molecule?
Answer: 0.261

Question: And the relative viability (NCI-H3122; first compound 0.0002 µM)?
Answer: 0.184

Question: What about the relative viability (NCI-H3122; first compound 0.000632 µM) of the same molecule?
Answer: 0.205

Question: And the relative viability (NCI-H3122; first compound 0.002 µM)?
Answer: 0.174

Question: And the relative viability (NCI-H3122; first compound 0.006325 µM)?
Answer: 0.187

Question: What about the relative viability (NCI-H3122; first compound 0.02 µM) of the same molecule?
Answer: 0.114

Question: What about the relative viability (NCI-H322M; first compound 0.0002 µM) of the same molecule?
Answer: 0.469

Question: What about the relative viability (NCI-H322M; first compound 0.000632 µM) of the same molecule?
Answer: 0.448

Question: What about the relative viability (NCI-H322M; first compound 0.002 µM) of the same molecule?
Answer: 0.471

Question: What about the relative viability (NCI-H322M; first compound 0.006325 µM) of the same molecule?
Answer: 0.468

Question: And the relative viability (NCI-H322M; first compound 0.02 µM)?
Answer: 0.438

Question: And the relative viability (NCI-H358; first compound 0.0002 µM)?
Answer: 0.16

Question: What about the relative viability (NCI-H358; first compound 0.000632 µM) of the same molecule?
Answer: 0.173

Question: And the relative viability (NCI-H358; first compound 0.002 µM)?
Answer: 0.142

Question: And the relative viability (NCI-H358; first compound 0.006325 µM)?
Answer: 0.126

Question: What about the relative viability (NCI-H358; first compound 0.02 µM) of the same molecule?
Answer: 0.111

Question: What about the relative viability (NCI-H441; first compound 0.0002 µM) of the same molecule?
Answer: 0.215

Question: And the relative viability (NCI-H441; first compound 0.000632 µM)?
Answer: 0.218

Question: What about the relative viability (NCI-H441; first compound 0.002 µM) of the same molecule?
Answer: 0.209

Question: What about the relative viability (NCI-H441; first compound 0.006325 µM) of the same molecule?
Answer: 0.2

Question: What about the relative viability (NCI-H441; first compound 0.02 µM) of the same molecule?
Answer: 0.132

Question: What about the relative viability (UMC-11; first compound 0.0002 µM) of the same molecule?
Answer: 0.322

Question: And the relative viability (UMC-11; first compound 0.000632 µM)?
Answer: 0.357

Question: And the relative viability (UMC-11; first compound 0.002 µM)?
Answer: 0.294

Question: What about the relative viability (UMC-11; first compound 0.006325 µM) of the same molecule?
Answer: 0.266

Question: What about the relative viability (UMC-11; first compound 0.02 µM) of the same molecule?
Answer: 0.234
